# Measurements: PMC4744035, “In Vivo, In Vitro, and In Silico Characterization of Peptoids as Antimicrobial Agents” (PLoS ONE, 2016)
# Square brackets hold non-standard residues; d marks the D form. Peptide text beside a SMILES is read from it. Nspe = C[C@H](NCC(=O)O)c1ccccc1; Nlys = NCCCCNCC(=O)O
# Columns and labels:
# erythrocytes = assay: Hemolytic activity (HD10/HD50); assay type: cell-based
# Excerpt: Table 1 Characteristics of antimicrobial peptoids, screened for activity against B. subtilis and E. coli bacterial strains. | column: HD10 / HD50
# NIH 3T3 cells = assay: Metabolic activity, MTS assay; assay type: cell-based, mouse
# Experimental: NIH 3T3 mouse fibroblast cells were cultured in complete Dulbecco’s Modified Eagle’s Media. A peptoid solution plate (100 µL per well) was prepared by serial dilution of aqueous peptoid stock solutions in Hank’s balanced salt solution. A day-old cell monolayer was washed thoroughly with Hank’s balanced salt solution and replenished with 100 µL Hank’s balanced salt solution per well. Peptoid solutions were transferred onto the day-old cell monolayers, which contained approximately 5000 cells per well. […] The average of six replicate trials is reported.
# E. coli 63103 (ESBL) = assay: microbe, parasite or virus in culture; conditions: 63103 (ESBL)
# Experimental: (§1) The MICs of test agents were measured using a modified broth micro-dilution method in Difco Mueller Hinton medium, on a panel of bacterial pathogens that were both susceptible and resistant to common antibiotics (S1 File). Briefly, serial dilutions were performed in 0.01% acetic acid containing 0.2% bovine serum albumin at 10-fold the desired final concentration. Ten μL of the 10-fold concentrated test reagents were added to each well of a 96-well polypropylene microtitre plate containing 90 μL of Mueller Hinton media per well. Bacteria were added to the plate from an overnight culture at a final concentration of 2–7 x 10^5 CFU/mL and incubated overnight at 37°C. The MIC is defined as the concentration at which no growth was observed.
# (§2) Screening of peptoid antimicrobial activity against a panel of multidrug resistant superbugs was done according to the protocol described in the manuscript. The bacterial strains used in this panel included; P. aeruginosa PAO1 strain H103 [1], P. maltophilia ATCC#13637, S. aureus ATCC#25923 [1], E. faecalis ATCC#29212 [2], and E. cloacae 218R, constitutively expressing Class C chromosomal β-lactamase, were from the Hancock lab strains collection. An MRSA clinical isolate was kindly provided by Anthony Chow (Vancouver General Hospital, Vancouver, Canada). Two Klebsiella pneumoniae and two E. coli clinical isolates expressing extended spectrum β-lactamases (ESBL) were kindly provided by George Zhanel (Health Sciences Centre, Winnipeg, Canada). Vancomycin-resistant clinical isolates of Enterococcus faecalis and E. faecium were obtained from Ana M. Paccagnella (BC Centre for Disease Control, Vancouver, Canada). Three clinical isolates (#9, #198 and #213) of multi-drug resistant P. aeruginosa, were kindly provided by Carlos Kiffer (University of São Paulo, Brazil). […] Three P. aeruginosa clinical isolates of the Liverpool epidemic strain (LES) (H1027, H1030 and LES400) were all kindly provided by Craig Winstanley (University of Liverpool, UK). […] All tested bacterial strains were categorized as biohazard level 2 pathogens.
# E. faecalis W61950 (VRE) = assay: microbe, parasite or virus in culture; conditions: W61950 (VRE)
# Experimental: as §1, §2
# E. faecium T62764 (VRE) = assay: microbe, parasite or virus in culture; conditions: T62764 (VRE)
# Experimental: as §1, §2
# P. aeruginosa 198 (MDR) = assay: microbe, parasite or virus in culture; conditions: 198 (MDR)
# Experimental: as §1, §2
# E. faecium mic80 (VRE) = assay: microbe, parasite or virus in culture; conditions: mic80 (VRE)
# Experimental: as §1, §2
# [1] = system: K. pneumonia 61962 (ESBL); assay: microbe, parasite or virus in culture
# Experimental: as §1, §2
# E. faecalis F43559 (VRE) = assay: microbe, parasite or virus in culture; conditions: F43559 (VRE)
# Experimental: as §1, §2
# E. coli 64771 (ESBL) = assay: microbe, parasite or virus in culture; conditions: 64771 (ESBL)
# Experimental: as §1, §2
# E. faecalis ATCC29212 = assay: microbe, parasite or virus in culture; conditions: ATCC29212
# Experimental: as §1, §2
# [2] = system: P. aeruginosa H1027 (MDR); assay: microbe, parasite or virus in culture; conditions: H1027 (MDR)
# Experimental: as §1, §2
# [3] = system: K. pneumonia 63575 (ESBL); assay: microbe, parasite or virus in culture
# Experimental: as §1, §2
# S. aureus C623 (MRSA) = assay: microbe, parasite or virus in culture; conditions: C623
# Experimental: as §1, §2
# S. aureus ATCC25923 = assay: microbe, parasite or virus in culture; conditions: ATCC25923
# Experimental: as §1, §2
# [4] = system: P. aeruginosa H103 (wild type); assay: microbe, parasite or virus in culture; conditions: H103 (wild type)
# Experimental: as §1, §2
# P. aeruginosa 213 (MDR) = assay: microbe, parasite or virus in culture; conditions: 213 (MDR)
# Experimental: as §1, §2
# [5] = system: E. cloacae 218R Class C β-lactamase; assay: microbe, parasite or virus in culture; conditions: 218R Class C β-lactamase
# Experimental: as §1, §2
# P. aeruginosa 9 (MDR) = assay: microbe, parasite or virus in culture; conditions: 9 (MDR)
# Experimental: as §1, §2
# [6] = system: P. aeruginosa LES400 (MDR); assay: microbe, parasite or virus in culture; conditions: LES400 (MDR)
# Experimental: as §1, §2
# P. maltophilia ATCC13637 = assay: microbe, parasite or virus in culture; conditions: ATCC13637
# Experimental: as §1, §2
# E. coli ATCC 35218 = assay type: cell-based
# Experimental: MICs against B. subtilis and E. coli screening bacterial strains were determined using serial dilution in 96-well microtiter plates in accordance with CLSI M7-A6 protocols. Briefly, peptoid solution in cation-adjusted Mueller-Hinton broth was prepared by 2:1 serial dilution with a total volume of 50 µL per well. In experimental wells, 50 µL of bacterial inoculums (1 x 10^6 CFU/mL) were added to the peptoid solutions. Positive controls consisted of 50 µL inoculums added to 50 µL cation-adjusted Mueller-Hinton broth containing no peptoid, while negative controls contained only cation-adjusted Mueller-Hinton broth. […] Experiments were reproducible among three independent replicates, each consisting of two parallel trials.
# [7] = system: P. aeruginosa H1030 (MDR); assay: microbe, parasite or virus in culture; conditions: P. aeruginosa H1030 (MDR)
# Experimental: as §1, §2
structure (smiles),measurement,setting,value
"C[C@H](NCC(=O)N(CCCCN)CC(=O)N(CC(=O)N(CCCCN)CC(=O)N(CCCCN)CC(=O)N(CCCCN)CC(=O)N(CC(=O)N(CCCCN)CC(=O)N(CC(=O)N(CCCCN)CC(=O)N(CCCCN)CC(=O)N(CC(=O)N(CC(=O)N(CCCCN)CC(=O)N(CC(N)=O)[C@@H](C)c1ccccc1)[C@@H](C)c1ccccc1)[C@@H](C)c1ccccc1)[C@@H](C)c1ccccc1)[C@@H](C)c1ccccc1)[C@@H](C)c1ccccc1)c1ccccc1 [1B15mer-NLys4,6,10, H-(Nspe-NLys)2-NLys2-(Nspe-NLys)2-NLys-Nspe2-NLys-Nspe-NH2] (H-[Nspe][Nlys][Nspe][Nlys][Nlys][Nlys][Nspe][Nlys][Nspe][Nlys][Nlys][Nspe][Nspe][Nlys][Nspe]-NH2)",HD10 (hemolytic activity),erythrocytes,>200 / >200
same,HD50 (hemolytic activity),erythrocytes,>200 / >200
same,"ID50 (inhibitory dose, metabolic activity)",NIH 3T3 cells,40 µM
"C[C@H](NCC(=O)N(CCCCN)CC(=O)N(CC(=O)N(CCCCN)CC(=O)N(CCCCN)CC(=O)N(CC(=O)N(CC(=O)N(CCCCN)CC(=O)N(CC(=O)N(CCCCN)CC(=O)N(CCCCN)CC(=O)N(CC(=O)N(CC(=O)N(CCCCN)CC(=O)N(CC(N)=O)[C@@H](C)c1ccccc1)[C@@H](C)c1ccccc1)[C@@H](C)c1ccccc1)[C@@H](C)c1ccccc1)[C@@H](C)c1ccccc1)[C@@H](C)c1ccccc1)[C@@H](C)c1ccccc1)c1ccccc1 [1B15mer-NLys4,10, H-(Nspe-NLys-Nspe-NLys-NLys-Nspe)2-Nspe-NLys-Nspe-NH2] (H-[Nspe][Nlys][Nspe][Nlys][Nlys][Nspe][Nspe][Nlys][Nspe][Nlys][Nlys][Nspe][Nspe][Nlys][Nspe]-NH2)",HD10 (hemolytic activity),erythrocytes,>200 / >200
same,HD50 (hemolytic activity),erythrocytes,>200 / >200
same,"ID50 (inhibitory dose, metabolic activity)",NIH 3T3 cells,16 µM
same,MIC,E. coli 63103 (ESBL),256 µg/mL
same,MIC,E. faecalis W61950 (VRE),128 µg/mL
same,MIC,E. faecium T62764 (VRE),4 µg/mL
same,MIC,P. aeruginosa 198 (MDR),16 µg/mL
same,MIC,E. faecium mic80 (VRE),32 µg/mL
same,MIC,[1],256 µg/mL
same,MIC,E. faecalis F43559 (VRE),256 µg/mL
"C[C@H](NCC(=O)N(CCCCN)CC(=O)N(CC(=O)N(CCCCN)CC(=O)N(CCCCN)CC(=O)N(CC(=O)N(CC(=O)N(CCCCN)CC(=O)N(CC(=O)N(CCCCN)CC(=O)N(CCCCN)CC(=O)N(CC(N)=O)[C@@H](C)c1ccccc1)[C@@H](C)c1ccccc1)[C@@H](C)c1ccccc1)[C@@H](C)c1ccccc1)[C@@H](C)c1ccccc1)c1ccccc1 [1B-NLys4,10, H-(Nspe-NLys-Nspe-NLys-NLys-Nspe)2-NH2] (H-[Nspe][Nlys][Nspe][Nlys][Nlys][Nspe][Nspe][Nlys][Nspe][Nlys][Nlys][Nspe]-NH2)",HD10 (hemolytic activity),erythrocytes,>200 / >200
same,HD50 (hemolytic activity),erythrocytes,>200 / >200
same,"ID50 (inhibitory dose, metabolic activity)",NIH 3T3 cells,83 µM
same,MIC,E. coli 64771 (ESBL),32 µg/mL
same,MIC,E. faecalis ATCC29212,256 µg/mL
same,MIC,[2],0.25 µg/mL
same,MIC,E. coli 63103 (ESBL),128 µg/mL
same,MIC,[3],128 µg/mL
same,MIC,S. aureus C623 (MRSA),256 µg/mL
same,MIC,S. aureus ATCC25923,256 µg/mL
same,MIC,[4],4 µg/mL
same,MIC,E. faecalis W61950 (VRE),256 µg/mL
same,MIC,E. faecium T62764 (VRE),16 µg/mL
same,MIC,P. aeruginosa 213 (MDR),16 µg/mL
same,MIC,P. aeruginosa 198 (MDR),32 µg/mL
same,MIC,E. faecium mic80 (VRE),32 µg/mL
same,MIC,[5],32 µg/mL
same,MIC,P. aeruginosa 9 (MDR),128 µg/mL
same,MIC,[6],16 µg/mL
same,MIC,[1],256 µg/mL
same,MIC,E. faecalis F43559 (VRE),256 µg/mL
same,MIC,P. maltophilia ATCC13637,0.25 µg/mL
same,MIC E. coli,E. coli ATCC 35218,50 µM
"C[C@@H](c1ccccc1)N(CC(N)=O)C(=O)CN(C(=O)CN(CCCCN)C(=O)[C@@H]1CCCN1C(=O)CN(C(=O)CN(CCCCN)C(=O)CN(C(=O)CN(C(=O)CN(CCCCN)C(=O)CN(C(=O)CN(C(=O)CNCCCCN)[C@@H](C)c1ccccc1)[C@@H](C)c1ccccc1)[C@@H](C)c1ccccc1)[C@@H](C)c1ccccc1)[C@@H](C)c1ccccc1)[C@@H](C)c1ccccc1 [Peptoid 1-Pro9, H-(NLys-Nspe2)2-NLys-Nspe-L-Pro-(NLys-Nspe2)-NH2] (H-[Nlys][Nspe][Nspe][Nlys][Nspe][Nspe][Nlys][Nspe]P[Nlys][Nspe][Nspe]-NH2)",HD10 (hemolytic activity),erythrocytes,165
same,HD50 (hemolytic activity),erythrocytes,> 200
same,MIC,E. coli 64771 (ESBL),8 µg/mL
same,MIC,E. faecalis ATCC29212,16 µg/mL
same,MIC,[2],2 µg/mL
same,MIC,E. coli 63103 (ESBL),32 µg/mL
same,MIC,[3],64 µg/mL
same,MIC,S. aureus C623 (MRSA),8 µg/mL
same,MIC,S. aureus ATCC25923,8 µg/mL
same,MIC,[4],8 µg/mL
same,MIC,E. faecalis W61950 (VRE),32 µg/mL
same,MIC,E. faecium T62764 (VRE),2 µg/mL
same,MIC,P. aeruginosa 213 (MDR),16 µg/mL
same,MIC,P. aeruginosa 198 (MDR),32 µg/mL
same,MIC,E. faecium mic80 (VRE),8 µg/mL
same,MIC,[5],32 µg/mL
same,MIC,P. aeruginosa 9 (MDR),256 µg/mL
same,MIC,[6],16 µg/mL
same,MIC,[1],128 µg/mL
same,MIC,E. faecalis F43559 (VRE),8 µg/mL
same,MIC,[7],32 µg/mL
same,MIC,P. maltophilia ATCC13637,2 µg/mL
same,MIC E. coli,E. coli ATCC 35218,12.5 µM
"C[C@@H](c1ccccc1)N(CC(N)=O)C(=O)CN(CCCCN)C(=O)CN(C(=O)CN(C(=O)CN(CCCCN)C(=O)CN(C(=O)CN(C(=O)CN(CCCCN)C(=O)CN(C(=O)CN(C(=O)CNCCCCN)[C@@H](C)c1ccccc1)[C@@H](C)c1ccccc1)[C@@H](C)c1ccccc1)[C@@H](C)c1ccccc1)[C@@H](C)c1ccccc1)[C@@H](C)c1ccccc1 [Peptoid 1_11mer, H-(NLys-Nspe-Nspe)3-NLys-Nspe-NH2] (H-[Nlys][Nspe][Nspe][Nlys][Nspe][Nspe][Nlys][Nspe][Nspe][Nlys][Nspe]-NH2)",HD10 (hemolytic activity),erythrocytes,103
same,HD50 (hemolytic activity),erythrocytes,> 200
same,"ID50 (inhibitory dose, metabolic activity)",NIH 3T3 cells,11 µM
same,MIC E. coli,E. coli ATCC 35218,6.3 µM
